Columns and labels:
[1] = test system: Prostate CSCs; assay: cell viability, trypan blue, Vi-CELL analyzer; type: cell-based, human; conditions: 3 days
Protocol: Prostate CSCs were treated with resveratrol (0-20 μM), curcumin (0-20 μM), honokiol (0-20 μM) and diallyl trisulphide (0-10 μM) for 3 days, and cell viability was measured by staining with trypan blue using Vi-CELL analyzer (Beckman Counter).
Prostate CSCs were treated with sulforaphane (0-20 μM), rottlerin (0-5 μM), EGCG (0-40 μM) and embelin (0-1 μM) for 3 days, and cell viability was measured by staining with trypan blue using Vi-CELL analyzer (Beckman Counter).
Prostate CSCs were treated with resveratrol (0-20 μM), curcumin (0-20 μM), honokiol (0-20 μM), and diallyl trisulphide (0-10 μM) for 3 days and cell viability was measured by staining with trypan blue using Vi-CELL analyzer. The results of those studies are illustrated in FIG. 25.
Prostate CSCs were treated with sulforaphane (0-20 μM), rottlerin (0-5 μM), EGCG (0-40 μM), and embelin (0-1 μM) for 3 days and cell viability was measured by staining with trypan blue using Vi-CELL analyzer. The results of those studies are illustrated in FIG. 26.

[2] = test system: Breast CSCs; assay: cell viability by XTT assay; type: cell-based; conditions: 3 days
Protocol: Breast CSCs were seeded in 96-well plate and treated with sulforaphane, diallyl trisulphide, resveratrol and curcumin for 3 days. At the end of incubation period, CSCs were harvested and cell viability was measured by XTT assay.
Breast CSCs were seeded in 96-well plate and treated with rottlerin, EGCG, embelin, and honokiol for 3 days. At the end of incubation period, breast CSCs were harvested and cell viability was measured by XTT assay.
(A-D) Breast CSCs were treated with PITC (0-20 μM), BSC, (0-20 μM), sulforaphane (0-20 μM) and honokiol (0-10 μM) for 3 days, and cell viability was measured by XTT assay.
Breast CSCs were treated with rottlerin (0-1 μM) for 3 days, and cell viability was measured by XTT assay.
Breast CSCs were seeded in 96-well plate and treated with sulforaphane, diallyl trisulphide, resveratrol, and curcumin for 3 days and cell viability was measured by XTT assay. The results of those studies are illustrated in FIG. 29.
Breast CSCs were seeded in 96-well plate and treated with Rottlerin, EGCG, embelin, and honokiol for 3 days and cell viability was measured by XTT assay. The results of those studies are illustrated in FIG. 30.

[3] = test system: Pancreatic CSCs; assay: apoptosis; type: cell-based, human
Protocol: (A and B) Induction of apoptosis and activation of caspase-3/-7. Pancreatic CSCs were treated with rottlerin (0-2 μM) for 48 h, and apoptosis and caspase-3/-7 activity were measured by […] and colorometric assay, respectively. […] (C) Pancreatic CSCs were treated with rottlerin (0-1 μM) for 48 h, and the expression of Bcl-2, XIAP and Survivin was measured by qRT-PCR and normalized to GAPDH.
(A) Pancreatic CSCs were treated with SAHA (3 and 5 μM) and 5-Aza-dc (2 and 4 μM) and cell viability was measured at 48 h by staining with trypan blue using Vi-CELL analyzer (Beckman Counter). (B) Pancreatic CSCs were untreated (a) or treated with SAHA (b) or 5-Aza-dC (c) for 48 h, and apoptosis was measured by staining with annexin-PI using Accuri Flow Cytometer. (C) Caspase-3/7 activity was measured in pancreatic CSCs treated with SAHA (0.5 and 2 μM) or 5-Aza-dC (1 and 3 μM) for 25 h.
(A) Regulation of caspase-3/7 activity by EGCG. CSCs were treated with EGCG (0-60 μM) for 24 h, and caspase-3/7 activity was measured as per manufacturer's instructions. […] (B) Regulation of apoptosis by EGCG. CSCs were treated with EGCG (0-60 μM) for 48 h, and apoptosis was measured by TUNEL assay. […] (C) Regulation of apoptosis-related proteins. Pancreatic CSCs were treated with EGCG (0-60 μM) for 36 h. Real time PCR (q-RT-PCR) was performed to examine the expression of Bcl-2, survivin, XIAP, and GAPDH.
FIG. 42A and FIG. 42B show graphs showing quercetin synergizes with EGCG to inhibit self-renewal capacity, invasion, migration, and TCF/LEF and Gli transcriptional activities in pancreatic CSCs. (A) Effects of EGCG and quercetin on spheroid and colony formation. Upper Panel, uercetin synergizes with EGCG to inhibit spheroid's cell viability. CSCs were seeded in suspension and treated with EGCG (0-60 μM) with or without quercetin (20 μM) for 7 days. At the end of incubation period, all the spheroids were collected and resuspended. Cell viability was measured by trypan blue assay. […] Lower panel, uercetin synergizes with EGCG to inhibit colony formation. Pancreatic CSCs were seeded in soft agar and treated with various doses of EGCG (0-60 μM) with or without quercetin (20 μM) and incubated at […] for 21 days. At the end of incubation period, colonies were counted. […] (B) Effects of EGCG and quercetin on invasion and migration. Upper panel, Matrigel invasion assay. CSCs were plated onto the Matrigel-coated membrane in the top chamber of the transwell and treated with EGCG (0-60 μM) with or without quercetin (20 μM) for 48 hrs. Cells invaded to the lower chambered were fixed with methanol, stained with crystal violet and counted. […] Lower panel, Transwell migration assay. Pancreatic CSCs were plated in the top chamber of the transwell and treated with EGCG (0-60 μM) with or without quercetin (20 μM) for 48 hrs. Cells migrated to the lower chambered were fixed with methanol, stained with crystal violet and counted. […] (C) Quercetin synergizes with EGCG to induce apoptosis. CSCs were seeded in suspension and treated with EGCG (0-60 μM) with or without quercetin (20 μM) for 7 days. At the end of incubation period, all the spheroids were collected. Apoptosis was measured by TUNEL assay. […] (D) Effects of EGCG and quercetin on TCF/LEF and Gli transcriptional activities. Pancreatic CSCs were transduced with either lentivirus encoding TCF/LEF responsive GFP and luciferase genes or Gli-responsive GFP and luciferase genes. Transduced CSCs were treated with EGCG (40 μM) with or without quercetin (20 μM) for 48 hrs and the luciferase activity was measured.
Pancreatic CSCs were (a) untreated, (b) treated with SAHA, or (c) treated with 5-Aza-dC for 48 hours and apoptosis was measured by staining with annexin-PI using Accuri Flow Cytometer. The results of those studies are illustrated in FIG. 31B.

[4] = EGCG 0-60 μM with or without quercetin 20 μM, 7 days, spheroids, TUNEL assay

Structure (SMILES) | cell viability [1] | cell viability [2] | apoptosis [3, 4] | apoptosis ([3]; EGCG 0-60 μM, 48 h, TUNEL assay) | apoptosis ([3]; rottlerin 0-2 μM, 48 h)
C[S+]([O-])CCCCN=C=S (stereo not shown) [sulforaphane] | inhibit cell viability | inhibit cell viability | – | – | –
O=c1c(O)c(-c2ccc(O)c(O)c2)oc2cc(O)cc(O)c12 [quercetin] | – | – | induced apoptosis | – | –
O=C(O[C@@H]1Cc2c(O)cc(O)cc2O[C@@H]1c1cc(O)c(O)c(O)c1)c1cc(O)c(O)c(O)c1 [EGCG, epigallocatechin gallate] | inhibit cell viability | inhibit cell viability | induced apoptosis | induced caspase-3/7 activity and apoptosis in pancreatic CSCs in a dose-dependent manner | –
CC(=O)c1c(O)c(C)c(O)c(Cc2c(O)c3c(c(C(=O)/C=C/c4ccccc4)c2O)OC(C)(C)C=C3)c1O [rottlerin] | inhibit cell viability | inhibits cell viability | – | – | induced

From patent US20160374944A1, “COMPOSITIONS AND METHODS FOR TREATING AND PREVENTING CANCER BY TARGETING AND INHIBITING CANCER STEM CELLS” (priority 2011, published 2016)
